Values of other authors, collected in EP3173487A1 (priority 2015, dated 2017).

test system: haloalkane dehalogenases; conditions: pH 8.6

Question: Which “classification as substrate of the analyzed haloalkane dehalogenases” value does the source give for `ClCC(Cl)CCl` [1,2,3-trichloropropane] here?
Answer: poor

Question: Which “classification as substrate of the analyzed haloalkane dehalogenases” value does the source give for `BrCCBr` [1,2-dibromoethane] here?
Answer: universal

Question: Which “classification as substrate of the analyzed haloalkane dehalogenases” value does the source give for `CC(Cl)CCl` (stereo not drawn) [1,2-dichloropropane] here?
Answer: poor

Question: With `CCCCBr` [1-bromobutane] as the compound, how does the “classification as substrate of the analyzed haloalkane dehalogenases” value read?
Answer: universal

Question: With `CCCCI` [1-iodobutane] as the compound, how does the “classification as substrate of the analyzed haloalkane dehalogenases” value read?
Answer: universal

Question: With `CCCI` [1-iodopropane] as the compound, how does the “classification as substrate of the analyzed haloalkane dehalogenases” value read?
Answer: universal

Question: For `N#CCCCBr` [4-bromobutanenitrile], which “classification as substrate of the analyzed haloalkane dehalogenases” value is on record?
Answer: universal

Question: Which “classification as substrate of the analyzed haloalkane dehalogenases” value does the source give for `BrCC1CCCCC1` [(bromomethyl)cyclohexane] here?
Answer: poor

Question: Which “classification as substrate of the analyzed haloalkane dehalogenases” value does the source give for `ClC1CCCCC1` [chlorocyclohexane] here?
Answer: poor
